The values below come from PubChem BioAssay (NCI).

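Cells were grown in 96-well plates and exposed to each compound for 48 hours at five concentrations; endpoints were interpolated linearly between bracketing concentrations, or set to the highest concentration if not reached. GI50 is the concentration that inhibits growth by half. TGI: concentration producing complete growth inhibition.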 Where a SMILES comes first, the peptide text is derived from it. The star is where a group is joined. Palmitoyl = CCCCCCCCCCCCCCCC(=O)*

Assay in all cases: NCI anticancer screen, dose series, 48 h
In test [1] the test system is RPMI-8226 leukemia.
Test [2] relates to HOP-62 NSCLC.
The subject of test [3] is KM12 colon.
Test [4] concerns SF-539 CNS.
The test system of test [5] is HOP-92 NSCLC.
For test [6], the system named is NCI-H23 lung.
Test [7] deals with COLO 205 colon.
Test [8] relates to MCF7 breast.
Test [9] has as its system CAKI-1 renal.
Test [10] concerns T-47D breast.

With `O[C@@]12Cc3c([nH]c4ccccc34)[C@@H]3Oc4cccc5c4[C@@]31CCN(CC1CC1)[C@@H]2C5`, the TGI in [1] was determined as 41.2 µM; in [2], 46.6 µM; in test [3], 54 µM; in test [4], 36.3 µM; in [5] it was 25.6 µM; in test [6] it was 55.6 µM. For the same molecule, the TGI worked out at 49.8 µM in [7], 31.3 µM in [8] and 34.2 µM in [9].

For `CCOC(=O)c1c(C)n(-c2ccc(Cl)cc2)c2c1cc(O)c1[nH]c3c(c12)CCCC3`, the TGI in test [1], in test [2], in [10], in test [3], in test [4] and in test [5] was over 100 µM in each case. The TGI in [6], in test [7], in [8] and in [9] was over 100 µM throughout.

In the case of `COC(=O)C1=C(OC(=O)/C(=C/c2ccc(Cl)cc2)c2ccc(Cl)cc2)C(C(=O)OC)[C@]2(O)[C@@H](C(=O)OC)[C@H]1C[C@@H](c1ccccc1)[C@@H]2C(=O)OC` (some centres undefined), the TGI in [2], in test [10], in [3], in [4], in [6] and in test [7] was over 100 µM throughout. The same molecule registered a TGI in test [9] of over 100 µM.

On to `c1cnc2c(c1)ccc1cccnc12`, for which the TGI in [1] is 7.89 µM; in [2] it was over 100 µM; in [10], over 100 µM; in [3] it was over 100 µM; in test [4], over 100 µM; in [5], over 100 µM. For the same molecule, the TGI in [6] was over 100 µM; in test [7] it was over 83.3 µM; in test [8] it was over 100 µM; in test [9], 27.3 µM.

As for `COc1cc(C(C)O)c[n+](Cc2ccccc2)c1` (centres undefined), the TGI in test [1], in test [2], in [3], in test [4], in test [5] and in test [6] was over 100 µM each time. The TGI in [7] and in test [9] was over 100 µM throughout.

With `C/C(=N/N=C(\[O-])c1ccncc1)C(F)(F)F.C/C(=N\N=C(/[O-])c1ccncc1)C(F)(F)F.[Ni+2]`, the GI50 in [2], in test [10], in test [3], in [6] and in test [7] was over 1 µM throughout. For the same molecule, the TGI in test [2], in [10], in test [3], in test [6] and in test [7] was over 1 µM each time.

With `CN1C(c2ccccc2)CC(=O)C(N)C1c1ccccc1` (centres undefined), the TGI in test [1] is 44.1 µM; in test [2] it was over 100 µM; in test [3] it was 57.5 µM; in test [4] it was over 96.5 µM; in test [5], 78.9 µM; in [6], over 100 µM. The values for the TGI in test [7] and in test [9] were 32.5 µM and over 75.2 µM, respectively.

As to `Nc1[nH]c(=O)nc2c1cnn2C1CCCCO1` (centres undefined), the TGI in test [1], in [3], in test [4], in [5], in [6] and in test [7] was over 100 µM each time. In [9], the TGI was over 100 µM.

For `c1ccc(-c2nc(N3CCNCC3)c3oc(-c4ccccc4)nc3n2)cc1`, the GI50 is 2.03 µM in test [1]; 2.26 µM in [2]; 2.1 µM in [10]; 1.8 µM in [3]; 1.76 µM in test [4]; 1.46 µM in test [5]. Moreover, the GI50 was 1.76 µM in [6], 2.14 µM in [7], 1.48 µM in [8] and 1.66 µM in test [9]. For the same molecule, the TGI in [1] was determined as 5.16 µM; in [2] it was 4.81 µM; in test [10], 4.95 µM; in [3], 3.35 µM; in [4], 3.17 µM; in test [5] it was 3.06 µM. The TGI in test [6] was found to be 3.39 µM; in [7] it was 4.88 µM; in [8], 3.31 µM; in test [9], 3.18 µM.

With `CON(C)c1nc(N(C)OC)nc(N(C)OC)n1`, the TGI in [1], in test [2], in test [10], in test [3], in [4] and in test [6] was over 10 µM each time. Also, the TGI in test [7], in test [8] and in test [9] was over 10 µM throughout.

For `CCCCCCCCCCCCCCCC(=O)N1CCCC1C(=O)NCC(=O)NC(Cc1ccccc1)C(=O)NC(C)C(=O)NC(CO)C(=O)NC(Cc1ccc(O)cc1)C(=O)NC(CCCCN)C(=O)NC(CC(C)C)C(=O)NC(CCCN=C(N)N)C(=O)N1CCCC1C(=O)NCC(N)=O` (centres undefined) (Palmitoyl-PGFASYKLRPG-NH2; configuration not given here), the GI50 in [1] was 4.36 µM; in test [2] it was 21.1 µM; in test [10], 17.4 µM; in test [3], 21.9 µM; in [4], 24 µM; in test [5], 15.8 µM. Also, the GI50 was 23.6 µM in [6], 10.9 µM in test [7], 18.2 µM in test [8] and 12.4 µM in [9]. The TGI in [1] worked out at 16.4 µM; in test [2], 46 µM; in test [10], 39.6 µM; in test [3], 51.4 µM; in [4], 61.4 µM; in [5], 34.7 µM. For the same molecule, the TGI in test [6] is 58.9 µM; in [7], 22.8 µM; in test [8], 42.8 µM; in test [9], 32.1 µM.

Consider `Cc1c(-c2ccccc2)[nH]c2cc(Cl)ccc2c1=O`, for which the TGI is over 100 µM in test [1]; 60 µM in [2]; over 100 µM in [10]; 18.7 µM in test [3]; over 100 µM in [4]; over 100 µM in test [6]. Also, the TGI in [8] and in test [9] was over 100 µM each time.

On to `Nc1nc(Nc2ccccc2)c2[nH]cnc2n1`, for which the TGI is over 100 µM in test [1]; over 100 µM in test [2]; over 100 µM in test [10]; over 100 µM in test [3]; over 100 µM in [4]; 92.4 µM in test [5]. For the same molecule, the TGI in [6], in test [7], in test [8] and in test [9] was over 100 µM each time.

In the case of `CC1=C(O)C2=C(C(=O)C1=O)[C@@H](C)CC[C@@H]2[C@@H](C)C/C=C/C(C)(C)O`, the TGI in test [1] is 56.3 µM; in test [2], over 100 µM; in test [10], 78.2 µM; in test [3] it was over 100 µM; in test [4], over 100 µM; in [6], over 100 µM. Besides, the TGI in test [7], in test [8] and in test [9] was over 100 µM each time.

For the molecule `OCCN(CCO)c1ncnc2nc[nH]c12`, the TGI in test [1], in test [2], in [10], in [3], in test [5] and in [6] was over 100 µM throughout. Further, the TGI in test [7], in test [8] and in test [9] was over 100 µM each time.

With `CCN1CCC(O)(/C=C/c2ccccc2C)C(C(=O)/C=C/c2ccccc2C)C1` (centres undefined), the TGI turned out to be 3.74 µM in test [2]; 4.32 µM in test [10]; 4.28 µM in [4]; 3.38 µM in test [5]; 4.11 µM in test [6]; 3.13 µM in test [7]. Moreover, the results for the TGI in test [8] and in test [9] were 7.37 µM and 3.21 µM, respectively.

In the case of `CC(N)Cc1ccc(Cl)c(Cl)c1` (centres undefined), the TGI in test [1] was over 84.6 µM; in test [2], over 100 µM; in test [3], over 100 µM; in test [4], over 60.2 µM; in test [5] it was 57.4 µM; in [6], over 100 µM. In addition, the figures for the TGI in [7] and in test [9] were 36.5 µM and 74.5 µM, respectively.

On to `Nc1nc(O)c2ncn([C@H]3CC[C@@H](CO)O3)c2n1`, for which the TGI in [1], in test [2], in [10], in test [3], in [5] and in test [6] was over 100 µM each time. Also, the TGI in test [7], in test [8] and in test [9] was over 100 µM throughout.
